{"source": "patent US20070078373A1", "about": "“PULSATILE DELIVERY OF GONADOTROPIN-RELEASING HORMONE FROM A PRE-LOADED INTEGRATED ELECTROTRANSPORT PATCH” (Vyteris, Inc., priority 2005, published 2007)", "key": {"[1]": {"assay": "Pulsatile transdermal iontophoresis of GnRH in pigs, plasma PK (Example 1)", "assay_type": "in vivo, Yorkshire pigs", "details": "for plasma concentrations: condition #2 (2 mg/mL patch)", "method": "(§1) Six prepubescent female Yorkshire pigs were used for this Example. A crossover design was used whereby each animal received both subcutaneous (SC) and iontophoretic treatments. Subcutaneous and iontophoresis experiments were spaced two weeks apart to meet acceptable animal blood draw limits. The subcutaneous injection experiments were performed first in the sequence. During the two week study the animal weights ranged from 15-32 kg.\nThe animal hair were clipped the night before the experiment. Prior to applying patches, a skin site free of obvious cuts and scrapes was selected. The selected skin site was wiped clean with warm water and an alcohol-loaded gauze pad and patted dry.\nIontophoretic hydrogel patches prepared according to Patch Fabrication Platform I (5 cm^2 active area) were used in these studies. The patches were loaded with GnRH (HCl) solution to provide final concentration of either 10 mg/mL, GnRH (HC 1) or 2 mg/mL GnRH (HCl) in the patch. The pH of the gel surface was from about 5 to about 5.5.\n(§2) All animals were placed in a sling under general propofol anesthesia and jugular, ear vein and arterial catheters placed percutaneously. For subcutaneous injection studies, a venous catheter was placed against the lower abdominal wall of the animal and 20 μg of drug was injected at 90-min intervals (total 5 dosing cycles). Each drug injection was followed by saline flush. The subcutaneous injection study in each animal was followed by iontophoresis administration in the same animal two weeks later. The iontophoresis experiments also involved five dosing cycles at 90-minute intervals. The drug loaded patches were placed on the back of the animal just off the midline section.\nA laboratory controller was used as a constant current source. The controller is a battery operated electrotransport controller and delivers a preprogrammed current density profile for experimental studies. In addition, the controller measures the voltage across and the current through an electrotransport patch during drug delivery. The accuracy of the delivered current is ±1% of full-scale. The controller has a maximum voltage of 35 V and can take readings once per second for up to an hour. The accuracy of the recorded current is ±1% of full-scale. The accuracy of the recorded voltage is 0.8 V Max. There are no moving parts on the controller. Infrared transmission of the delivery profile and data retrieval to a computer ensures there are no disturbances during the treatment of a subject.\nExample 1 utilized a current delivery profile comprising five cycles of eight minute pulses each having a current of 1.2 mA, with rest times of 90 minutes between pulses.\n(§3) Blood samples were drawn from the jugular catheter into pre-chilled 3 mL vacutainer tubes using the following protocol. The tubes contained EDTA (1 mg/mL of blood) and Aprotinin (500 KIU/mL, of blood). A 2 mL, flush volume of blood was drawn followed by a 3 mL sample. The blood samples were withdrawn as outlined in Table G below. The tubes were centrifuged within 15 min of blood collection at 1600 rpm for 15 min at 4° C. The separated plasma was split into two (approximately equal volume) 2 mL tubes and frozen on dry ice. Samples were stored at −70° C. until shipment. The samples were analyzed using an I^125 radio labeled immnunoassay.\nAll experimental animals were allowed to recover from anesthesia after sutaneous treatment. The jugular catheter was left over night and removed after 24 hour blood draw was complete. Immediately following the 24 hour iontophoresis blood draw, animals were euthanized. Animal 1 died seven days after subcutaneous treatment. Animals 2, 3, and 4 received iontophoresis under condition #1 and animals 5 and 6 received iontophoresis under condition #2."}, "in vivo": {"assay": "in vivo", "design": "species or system Yorkshire pigs", "details": "pig, sc", "method": "as §1\nThe subcutaneous dosing solutions of concentration 200 μg/mL and 400 μg/mL, were prepared in pH 5.0 water (pH of maximum stability), Pigs 1 and 2 received 50 μl of 400 μg/mL, solution, while pigs 3-6 received 100 μl of 200 μg/mL, solution for each of the 5 doses.\nas §2, §3"}, "[2]": {"design": "species or system Yorkshire pigs", "details": "pig, in vivo", "method": "Six prepubescent female Yorkshire pigs (numbered from 7-12) were used in this set of studies. Each animal received two iontophoretic treatments. A first set of three animals received 50 mg/mL, drug concentration using five 8-min pulses (condition #3) and a week later received the same concentration using eight 5-min pulses (condition #5). A second set of three animals received 25 mg/mL drug concentration using five 8-min pulses (condition #4) and a week later received the same concentration using eight 5-min pulses (condition #6). The five 8-min pulse experiments were performed first in the sequence. During the span of the study the animal weights ranged from approximately 18-33 kg.\nThe animals were prepared as described in Example 1. Inotophoretic hydrogel patches prepared according to Patch Fabrication Platform I (5 cm^2 active area) were used in these studies. The patches were loaded with GnRH (HCl) solution to provide final concentration of either 25 mg/mL GnRH (HC l) or 50 mg/mL GnRH (HCl) in the patch. The pH of the gel surface was measured to be 5.0±0.5. The patches were placed on the back of the animal just off the midline section. The controller, as described in Example 1, was used. One patch each was used throughout the entire delivery period for conditions 3-5. For condition #6, the patch was replaced with a fresh patch after pulse 5. The experimental conditions are summarized in Table K. Example 2 utilized current delivery profiles comprising five cycles of eight minute pulses each having a current of 1.2 mA for conditions #3 and #4; and eight cycles of five minute pulses each having a current of 1.2 mA for conditions #5 and #6. Each profile had rest times of 90 minutes between pulses.\nBlood samples were drawn from a jugular catheter at times as disclosed in Table L, and treated according to the protocol set forth in Example 1."}, "[3]": {"design": "species or system Yorkshire pigs", "details": "pig, in vivo", "method": "Three prepubescent female Yorkshire pigs (numbered 13-15) were used in this Example. Each animal received one iontophoretic treatment for eight 90 minute cycles and a ninth cycle with subcutaneous (“SC”) dosing for comparison. The ionotophoretic devices were prepared according to Patch Fabrication Platform I (5 cm^2 active area). The patches were loaded with GnRH (HCl) solution to provide final concentration of 25 mg/mL, GnRH. The pH of the gel surface was measured to be 5.0±0.5. The patches were stored at 5° C. at all times except during travel to the study site. The SC dosing solution used in animal 13 was prepared 4 days before use and stored at room temperature (“RT”). The SC dosing solution used in animal 14 was prepared 6 days before use and stored mainly at RT. The SC dosing solution used in animal 15 was prepared 1 day before use and stored at RT. During the study, the animal weights ranged from approximately 15-30 kg. […] The animals were prepared as described in Example 1. The drug loaded patches were placed on the back of the animal just off the midline section. One patch each was used throughout the eight delivery pulses. The controller, as described in Example 1, was used as a constant current source. Blood samples were drawn from a jugular catheter at times as disclosed in Table P, and treated according to the analytical protocol set forth in Example 1.", "remark": "listed apart in the source"}, "[4]": {"details": "condition #1, animal weight normalized, pulses 1-5"}}, "note": "Structures can show the parent of a compound that is named as a salt."}
{"smiles": "CC(C)C[C@H](NC(=O)CNC(=O)[C@H](Cc1ccc(O)cc1)NC(=O)[C@H](CO)NC(=O)[C@H](Cc1c[nH]c2ccccc12)NC(=O)[C@H](Cc1cnc[nH]1)NC(=O)[C@@H]1CCC(=O)N1)C(=O)N[C@@H](CCCNC(=N)N)C(=O)N1CCC[C@H]1C(=O)NCC(N)=O", "note": "[GnRH, gonadorelin hydrochloride]", "values": [{"measurement": "ratio of the mean CV for AUC between iontophoretic and subcutaneous drug delivery", "setting": "[1]; condition #1, all pulses", "value": 1.9}, {"measurement": "ratio of the mean CV for Cmax between iontophoretic and subcutaneous drug delivery", "setting": "[1]; condition #1, all pulses", "value": 2.0}, {"measurement": "Mean coefficient of variation (for AUC) for iontophoretic drug delivery", "setting": "[1]; [4]", "value": 35, "unit": "%"}, {"measurement": "mean CV (for Cmax) for iontophoretic drug delivery", "setting": "[1]; [4]", "value": 40, "unit": "%"}, {"measurement": "mean CV (for AUC) for iontophoretic drug delivery", "setting": "[1]; condition #1, pulse 1 excluded", "value": 15, "unit": "%"}, {"measurement": "mean CV (for Cmax) for iontophoretic drug delivery", "setting": "[1]; condition #1, pulse 1 excluded", "value": 22, "unit": "%"}, {"measurement": "ratio of the mean CV for AUC between iontophoretic and subcutaneous drug delivery", "setting": "[1]; condition #1, pulse 1 excluded", "value": 0.83}, {"measurement": "ratio of the mean CV for Cmax between iontophoretic and subcutaneous drug delivery", "setting": "[1]; condition #1, pulse 1 excluded", "value": 1.1}, {"measurement": "percent difference between iontophoresis and subcutaneous means, of the subcutaneous AUC", "setting": "[1]; condition #1 vs subcutaneous 20 μg dose, animal weight normalized", "value": 47, "unit": "%"}, {"measurement": "percent difference between iontophoresis and subcutaneous Cmax means, of the subcutaneous mean Cmax", "setting": "[1]; condition #1 vs subcutaneous, animal weight normalized", "value": 32, "unit": "%"}, {"measurement": "plasma concentrations", "setting": "[1]; animal 5, first 3 pulses", "value": "below assay limit of detection"}, {"measurement": "plasma concentrations", "setting": "[1]; animal 6, first pulse", "value": "below assay limit of detection"}, {"measurement": "Mean AUC for pulses 4 and 5, fold less than iontophoresis condition #1", "setting": "[1]; condition #2 vs condition #1", "value": 5.6, "unit": "fold"}, {"measurement": "Mean Cmax for pulses 4 and 5, fold less than iontophoresis condition #1", "setting": "[1]; condition #2 vs condition #1", "value": 4.6, "unit": "fold"}, {"measurement": "Tmax", "setting": "[1]; female, Yorkshire, pig, in vivo, Tmax", "value": 20, "unit": "min"}, {"measurement": "AUC", "setting": "in vivo; female, Yorkshire, 20 ug, Subcut. AUC", "value": 0.742, "unit": "ng·h/mL"}, {"measurement": "Tmax", "setting": "in vivo; female, Yorkshire, Subcut Tmax", "value": 19, "unit": "min"}, {"measurement": "Mean CV (for AUC) for subcutaneous drug delivery", "setting": "in vivo; 20 ug", "value": 18, "unit": "%"}, {"measurement": "Mean CV (for Cmax) for subcutaneous drug delivery", "setting": "in vivo; 20 ug", "value": 20, "unit": "%"}, {"measurement": "Mean AUC, less than for 10 mg/mL drug concentration and 8-min pulses (Example 1)", "setting": "[2]", "value": 25, "unit": "%"}, {"measurement": "Mean Cmax, less than for 10 mg/mL drug concentration and 8-min pulses (Example 1)", "setting": "[2]", "value": 25, "unit": "%"}, {"measurement": "drug delivery, less compared with 10 mg/mL drug concentration and 8-minute pulses", "setting": "[2]", "value": 25, "unit": "%"}, {"measurement": "Tmax coefficient of variation over pulses 2-8", "setting": "[3]", "value": 9, "unit": "%"}]}
